# Source: PubChem BioAssay AID1329 (NMMLSC, 2008)
# Active and inactive are the calls of the source. No rule for the calls is given here.
# Target: Induced myeloid leukemia cell differentiation protein Mcl-1 (Homo sapiens) (UniProt Q07820)
# Experiment: modulators of Bim peptide binding to Mcl-1, dose response, biochemical, bead-based flow cytometry, multiplexed, human (AID 1329)
# Settings: Bim peptide-Mcl-1 binding, MCF
# Sequence of Induced myeloid leukemia cell differentiation protein Mcl-1 (Homo sapiens) (Q07820 whole entry, looked up): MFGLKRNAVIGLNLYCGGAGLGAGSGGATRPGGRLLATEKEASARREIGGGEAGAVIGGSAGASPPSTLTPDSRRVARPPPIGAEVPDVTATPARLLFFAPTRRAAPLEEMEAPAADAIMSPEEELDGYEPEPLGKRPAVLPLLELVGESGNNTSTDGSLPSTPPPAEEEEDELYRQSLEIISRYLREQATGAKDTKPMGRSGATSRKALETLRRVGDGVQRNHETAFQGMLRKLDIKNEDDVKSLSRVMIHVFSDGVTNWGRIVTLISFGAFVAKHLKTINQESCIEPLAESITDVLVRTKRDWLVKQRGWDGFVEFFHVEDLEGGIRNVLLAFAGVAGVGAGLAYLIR
row,Compound,percent span
1,Cc1[nH]nc(SCC(=O)NCc2ccc(F)cc2)c1[N+](=O)[O-],inactive
2,CN1CCN(c2ccccc2N)CC1,inactive
3,COc1cccc(/C=C2/SC(=O)N(C)C2=O)c1OCc1ccc(C(=O)O)cc1,inactive
4,N#C/C(=C(/O)CN1CCN(c2ccccc2F)CC1)c1nc(-c2ccccc2)cs1,inactive
5,CCOC(=O)C1(CC/C(C)=N\NC(N)=O)CC(C)(C)OC1=O (centres undefined),inactive
6,Cn1c(=O)c(C(=O)COC(=O)c2cc(-c3ccco3)nc3ccccc23)c(N)n(CC2CC2)c1=O,inactive
7,Cc1ccc(/C=C/C2=Cc3c(sc(NC(=O)CSc4n[nH]c(N)n4)c3C#N)C(C)(C)C2)o1,inactive
8,Cc1cc(N2CCN(C)CC2)nc2ccc(NC(=S)N3CCCCC3)cc12,inactive
9,C/C(=N\NC(=O)COc1ccc(C(C)(C)C)cc1)c1ccc2c(c1)OCCO2,inactive
10,COc1ccc(-n2cc(-c3ccc(OC)c(OC)c3)[nH]c2=S)cc1,inactive
11,COc1ccc(N2C(=O)C(Cl)=C(Nc3c(C)n(C)n(-c4ccccc4)c3=O)C2=O)cc1,inactive
12,CN(CCc1ccccn1)C(=O)CCC1CCCN(C(=O)NC2CCCCC2)C1 (centres undefined),inactive
13,CN(C)[C@@H]1C(=O)C(C(=O)NCN2CCCC2)=C(O)[C@@]2(O)C(=O)C3=C(O)c4c(O)cccc4[C@@](C)(O)C3CC12 (some centres undefined),inactive
14,CC(C)Cc1cc(-c2ccco2)c(C#N)c(N)n1,inactive
15,COc1ccc(CC(=O)Nc2ccc(C(=O)Nc3nccs3)cc2)cc1OC,inactive
16,O=C1N/C(=C/c2cccn2-c2ccccc2)C(=O)N1Cc1ccc(F)cc1,inactive
17,Cc1ccc(-c2cc(C(=O)Nc3nccs3)c3ccccc3n2)o1,inactive
18,CC1(C)SC(=S)N(NC(=O)Nc2ccccc2)C1N(O)C(=O)Nc1cccc2ccccc12 (centres undefined),inactive
19,CCOC(=O)C1=C(Cc2ccc(OC)cc2)C(=O)c2ccccc2C1=O,inactive
20,CC(=O)OCCNc1cc(Sc2nc3ccccc3[nH]2)c2nonc2c1[N+](=O)[O-],inactive

row,Compound,percent span
1,COc1ccc2nc(C)cc(SCC(=O)N/N=C/c3ccc(O)cc3O)c2c1,inactive
2,Cc1cc(C)n(CC(=O)N/N=C/c2cccc([N+](=O)[O-])c2)n1,inactive
3,OC(CNC1CCCCC1)COCCOc1ccc(Br)cc1 (centres undefined),inactive
4,CC1(C)CC(=O)C(C=NCCN2CCN(CCc3ccccc3)CC2)=C(O)C1,inactive
5,CCN(CC)c1nc(N)nc(N(c2ccccc2)c2ccccc2)n1,inactive
6,Cc1nnc(Sc2cc(NCCCO)c([N+](=O)[O-])c3nonc23)s1,inactive
7,Cc1ccc2nc3c(cc(C(N)=S)c(=N)n3CCCOC(C)C)c(=O)n2c1,inactive
8,CCN(CC)c1ccc(-c2nn3c(-c4n[nH]c5c4CCC5)nnc3s2)cc1,inactive
9,Cc1ccc(NS(=O)(=O)c2cc(NC(=O)c3ccc4c(c3)NC(=O)CS4)ccc2C)c(C)c1,inactive
10,COc1cc(CNc2ccc(N3CCCC3)cc2)cc(Cl)c1OC,inactive
11,CCN=c1scc(C)n1/N=C/c1ccc(O)c(O)c1O,inactive
12,CCN1CCN(c2ccc(NC(=O)c3ccc4c(c3)[nH]c(=O)n4Cc3ccc(OC)cc3)cc2)CC1,inactive
13,Cc1occc1C(=O)NNC(=S)NCc1ccccc1,inactive
14,Cc1ccc(-c2cc(C(=O)N3CCN(c4ncccn4)CC3)c3cc(Br)ccc3n2)o1,inactive
15,CNc1ccc(Br)cc(C(=O)/C=C/c2cccc(OC)c2OC)c1=O,inactive
16,Cc1cc(C(=O)NCCCN(C)C)c2ccccc2n1,inactive
17,Cc1ccccc1-n1nc(SCC(=O)O)sc1=S,inactive
18,CCOc1ccccc1-n1c(=O)c2ccccc2c2ccccc2c1=O,inactive
19,Cc1ccc(C)c(/C=C/C(=O)c2ccccc(=O)c2O)c1,inactive
